Reference: patent US7709471B2, “Compounds” (AstraZeneca AB, priority 2006, dated 2010)

Test system: human colon tumour cell line HT29
Assay: Cellular Assay (phosphohistone H3 Ser10 mitotic marker, HT29)
Format: cell-based
Settings: HT-29, 24 h, HT29 cells, read-out: IC50 (cellular assay, phosphohistone H3)
Description: Chromosome condensation in mitosis is accompanied by phosphorylation of histone H3 on serine 10.
After 24 hours, cells were fixed in 3.7% (v/v) formaldehyde then permeabilised and blocked for 10 minutes in 100 μl 0.5% (v/v) Triton X-100, 1% (w/v) bovine serum albumin (BSA) in phosphate buffered saline (PBS). […] The raw assay data were analysed by non-linear regression analysis and used to determine an IC50 value for each compound.

| Compound | IC50 [nM] |
| --- | --- |
| CN1CCC(NC(=O)c2cc(F)c(Nc3ncc4c(n3)N(C3CCCCC3)CC3(CC3)C(=O)N4C)cc2F)CC1 [Example 436, 4-(9′-cyclohexyl-5′-methyl-6′-oxo-5′,6′,8′,9′-tetrahydrospiro[cyclopropane-1,7′-pyrimido[5,4-b][1,4]diazepine]-2′-ylamino)-2,5-difluoro-N-(1-methyl-4-piperidyl)benzamide] | < 300 |
| CCOc1cc(C(=O)NC2CCN(C)CC2)c(F)cc1Nc1ncc2c(n1)N(C(C)C)CCC(=O)N2C [Example 287, 5-ethoxy-2-fluoro-4-[(6-methyl-5-oxo-2-propan-2-yl-2,6,9,11-tetrazabicyclo[5.4.0]undeca-7,9,11-trien-10-yl)amino]-N-(1-methyl-4-piperidyl)benzamide] | < 30000 |
| CCN1CCC(NC(=O)c2cc(OC)c(Nc3ncc4c(n3)N(C3CCCC3)CCC(=O)N4C)cc2Cl)CC1 [Example 337, 2-chloro-4-[(2-cyclopentyl-6-methyl-5-oxo-2,6,9,11-tetrazabicyclo[5.4.0]undeca-7,9,11-trien-10-yl)amino]-N-(1-ethyl-4-piperidyl)-5-methoxy-benzamide] | < 300 |
| COc1cc(C(=O)NCCCN(C)C)ccc1Nc1ncc2c(n1)N(C(C)C)CC(C)(C)C(=O)N2C [Example 303, N-(3-dimethylaminopropyl)-3-methoxy-4-[(4,4,6-trimethyl-5-oxo-2-propan-2-yl-2,6,9,11-tetrazabicyclo[5.4.0]undeca-7,9,11-trien-10-yl)amino]benzamide] | < 300 |
| COc1cc(C(=O)NCCN2CCCC2)c(F)cc1Nc1ncc2c(n1)N(C1CCCC1)CCC(=O)N2C [Example 333, 4-[(2-cyclopentyl-6-methyl-5-oxo-2,6,9,11-tetrazabicyclo[5.4.0]undeca-7,9,11-trien-10-yl)amino]-2-fluoro-5-methoxy-N-(2-pyrrolidin-1-ylethyl)benzamide] | < 300 |
| CCN1CCC(NC(=O)c2cc(OC)c(Nc3ncc4c(n3)N(C3CCCC3)CC3(CC3)C(=O)N4C)cc2F)CC1 [Example 407, 4-(9′-cyclopentyl-5′-methyl-6′-oxo-5′,6′,8′,9′-tetrahydrospiro[cyclopropane-1,7′-pyrimido[5,4-b][1,4]diazepine]-2′-ylamino)-N-(1-ethyl-4-piperidyl)-2-fluoro-5-methoxy-benzamide] | < 300 |
| COc1cc(C(=O)NC2CCN(C)CC2)ccc1Nc1ncc2c(n1)N(C1CCCC1)CC1(CCCC1)C(=O)N2C [Example 409, 4-(9′-cyclopentyl-5′-methyl-6′-oxo-5′,6′,8′,9′-tetrahydrospiro[cyclopentane-1,7′-pyrimido[5,4-b][1,4]diazepine]-2′-ylamino)-3-methoxy-N-(1-methylpiperidin-4-yl)benzamide] | < 300 |
| CCOc1cc(C(=O)N[C@@H]2CCN(C)C2)c(F)cc1Nc1ncc2c(n1)N(C(C)C)CC(C)(C)C(=O)N2C [Example 297, 5-ethoxy-2-fluoro-N-[(3R)-1-methylpyrrolidin-3-yl]-4-[(4,4,6-trimethyl-5-oxo-2-propan-2-yl-2,6,9,11-tetrazabicyclo[5.4.0]undeca-7,9,11-trien-10-yl)amino]benzamide] | < 30000 |
| COc1cc(C(=O)NC2CCN(C)CC2)c(F)cc1Nc1ncc2c(n1)N(C1CCCC1)CC(C)(C)C(=O)N2C [Example 361, 4-[(2-cyclopentyl-4,4,6-trimethyl-5-oxo-2,6,9,11-tetrazabicyclo[5.4.0]undeca-7,9,11-trien-10-yl)amino]-2-fluoro-5-methoxy-N-(1-methyl-4-piperidyl)benzamide] | < 300 |
| COc1cc(C(=O)NCCN(C)C)ccc1Nc1ncc2c(n1)N(C1CCCCC1)CCC(=O)N2C [Example 426, 4-[(2-cyclohexyl-6-methyl-5-oxo-2,6,9,11-tetrazabicyclo[5.4.0]undeca-7,9,11-trien-10-yl)amino]-N-(2-dimethylaminoethyl)-3-methoxy-benzamide] | < 300 |
| COc1cc(C(=O)NC2CCNCC2)ccc1Nc1ncc2c(n1)N(C1CCCC1)CC(C)(C)C(=O)N2C [Example 349, 4-[(2-cyclopentyl-4,4,6-trimethyl-5-oxo-2,6,9,11-tetrazabicyclo[5.4.0]undeca-7,9,11-trien-10-yl)amino]-3-methoxy-N-(4-piperidyl)benzamide] | < 300 |
| COc1cc(C(=O)NC2CCC(N(C)C)CC2)ccc1Nc1ncc2c(n1)N(C1CCCC1)CC(C)(C)C(=O)N2C (stereo not drawn) [Example 363, 4-[(2-cyclopentyl-4,4,6-trimethyl-5-oxo-2,6,9,11-tetrazabicyclo[5.4.0]undeca-7,9,11-trien-10-yl)amino]-N-(4-dimethylaminocyclohexyl)-3-methoxy-benzamide] | < 300 |
| CCC1(CC)CN(C2CCCC2)c2nc(Nc3ccc(C(=O)NC4CCN(C)CC4)cc3OC)ncc2N(C)C1=O [Example 380, 4-[(2-cyclopentyl-4,4-diethyl-6-methyl-5-oxo-2,6,9,11-tetrazabicyclo[5.4.0]undeca-7,9,11-trien-10-yl)amino]-3-methoxy-N-(1-methyl-4-piperidyl)benzamide] | < 300 |
| COc1cc(C(=O)NCCN2CCCC2)c(F)cc1Nc1ncc2c(n1)N(C1CCCC1)CC1(CC1)C(=O)N2C [Example 398, 4-(9′-cyclopentyl-5′-methyl-6′-oxo-5′,6′,8′,9′-tetrahydrospiro[cyclopropane-1,7′-pyrimido[5,4-b][1,4]diazepine]-2′-ylamino)-2-fluoro-5-methoxy-N-(2-pyrrolidin-1-ylethyl)benzamide] | < 300 |
| CN1C(=O)CCN(C2CCCC2)c2nc(Nc3cc(F)c(C(=O)NCCN4CCCC4)cc3F)ncc21 [Example 335, 4-[(2-cyclopentyl-6-methyl-5-oxo-2,6,9,11-tetrazabicyclo[5.4.0]undeca-7,9,11-trien-10-yl)amino]-2,5-difluoro-N-(2-pyrrolidin-1-ylethyl)benzamide] | < 300 |
| COc1cc(C(=O)NCC(C)(C)CN2CCCC2)ccc1Nc1ncc2c(n1)N(C1CCCC1)CC(C)(C)C(=O)N2C [Example 368, 4-[(2-cyclopentyl-4,4,6-trimethyl-5-oxo-2,6,9,11-tetrazabicyclo[5.4.0]undeca-7,9,11-trien-10-yl)amino]-N-(2,2-dimethyl-3-pyrrolidin-1-yl-propyl)-3-methoxy-benzamide] | < 300 |
| COc1cc(C(=O)NCCCN(C)C)ccc1Nc1ncc2c(n1)N(C1CCCCC1)CCC(=O)N2C [Example 424, 4-[(2-cyclohexyl-6-methyl-5-oxo-2,6,9,11-tetrazabicyclo[5.4.0]undeca-7,9,11-trien-10-yl)amino]-N-(3-dimethylaminopropyl)-3-methoxy-benzamide] | < 300 |
| CN(C)CC(C)(C)CNC(=O)c1ccc(Nc2ncc3c(n2)N(C2CCCC2)CC2(CC2)C(=O)N3C)c(Cl)c1 [Example 392, 3-chloro-4-(9′-cyclopentyl-5′-methyl-6′-oxo-5′,6′,8′,9′-tetrahydrospiro[cyclopropane-1,7′-pyrimido[5,4-b][1,4]diazepine]-2′-ylamino)-N-(3-dimethylamino-2,2-dimethyl-propyl)benzamide] | < 300 |
| CN1CCC(NC(=O)c2cc(Cl)c(Nc3ncc4c(n3)N(C3CCCC3)CCC(=O)N4C)c(Cl)c2F)CC1 [Example 330, 3,5-dichloro-4-[(2-cyclopentyl-6-methyl-5-oxo-2,6,9,11-tetrazabicyclo[5.4.0]undeca-7,9,11-trien-10-yl)amino]-2-fluoro-N-(1-methyl-4-piperidyl)benzamide] | < 1000 |
| CN1C(=O)CCN(C2CCCC2)c2nc(Nc3cccc(C(N)=O)c3)ncc21 [Example 167, 3-[(6-cyclopentyl-2-methyl-3-oxo-2,6,8,10-tetrazabicyclo[5.4.0]undeca-8,10,12-trien-9-yl)amino]benzamide] | < 30000 |
| COc1cc(C(=O)NC2C[C@H]3CCC[C@@H](C2)N3C)ccc1Nc1ncc2c(n1)N(C1CCCCC1)CCC(=O)N2C (stereo partly drawn) [Example 418, 4-[(2-cyclohexyl-6-methyl-5-oxo-2,6,9,11-tetrazabicyclo[5.4.0]undeca-7,9,11-trien-10-yl)amino]-3-methoxy-N-[(1R,5S)-9-methyl-9-azabicyclo[3.3.1]non-7-yl]benzamide] | < 300 |
| COc1cc(C(=O)O)ccc1Nc1ncc2c(n1)N(C1CCCC1)CC(C)(C)C(=O)N2C [Example 242, 4-[(2-cyclopentyl-4,4,6-trimethyl-5-oxo-2,6,9,11-tetrazabicyclo[5.4.0]undeca-7,9,11-trien-10-yl)amino]-3-methoxy-benzoic acid] | < 1000 |
| COc1cc(C(=O)NCCN2CCCC2)ccc1Nc1ncc2c(n1)N(C(C)C)CC1(CC1)C(=O)N2C [Example 312, 4-(9′-isopropyl-5′-methyl-6′-oxo-5′,6′,8′,9′-tetrahydrospiro[cyclopropane-1,7′-pyrimido[5,4-b][1,4]diazepine]-2′-ylamino)-3-methoxy-N-(2-(pyrrolidin-1-yl)ethyl)benzamide] | < 300 |
| CCN1CCC(NC(=O)c2cc(F)c(Nc3ncc4c(n3)N(C3CCCC3)CC(C)(C)C(=O)N4C)cc2F)CC1 [Example 355, 4-[(2-cyclopentyl-4,4,6-trimethyl-5-oxo-2,6,9,11-tetrazabicyclo[5.4.0]undeca-7,9,11-trien-10-yl)amino]-N-(1-ethyl-4-piperidyl)-2,5-difluoro-benzamide] | < 300 |
| COc1cc(C(=O)NCCN2CCCC2)ccc1Nc1ncc2c(n1)N(C1CCCC1)CC1(CC1)C(=O)N2C [Example 384, 4-(9′-cyclopentyl-5′-methyl-6′-oxo-5′,6′,8′,9′-tetrahydrospiro[cyclopropane-1,7′-pyrimido[5,4-b][1,4]diazepine]-2′-ylamino)-3-methoxy-N-(2-pyrrolidin-1-ylethyl)benzamide] | < 300 |
| CCN1CCC(NC(=O)c2cc(OC)c(Nc3ncc4c(n3)N(C3CCCC3)CC(CC)(CC)C(=O)N4C)cc2F)CC1 [Example 379, 4-[(2-cyclopentyl-4,4-diethyl-6-methyl-5-oxo-2,6,9,11-tetrazabicyclo[5.4.0]undeca-7,9,11-trien-10-yl)amino]-N-(1-ethyl-4-piperidyl)-2-fluoro-5-methoxy-benzamide] | < 300 |
| CCN1CCC(NC(=O)c2cc(F)c(Nc3ncc4c(n3)N(C3CCCCC3)CCC(=O)N4C)cc2F)CC1 [Example 415, 4-[(2-cyclohexyl-6-methyl-5-oxo-2,6,9,11-tetrazabicyclo[5.4.0]undeca-7,9,11-trien-10-yl)amino]-N-(1-ethyl-4-piperidyl)-2,5-difluoro-benzamide] | < 300 |
